Test results taken from US20100234313A1, “STABILIZED MICRONISED PARTICLES” (priority 2007, published 2010).

Assays:
[1] = tested on: Penicillium discolor PED1, CR1A and Penicillium discolor PED74, L1; test: Challenge test on coated Gouda cheese; format: cell-based
Protocol: To test the efficacy of micronised natamycin in a cheese application, an experiment was performed wherein the surface of fresh brined Gouda cheeses were challenged with Penicillium discolor strains and treated with formulations comprising natamycin with different particle sizes. The amount of mould spores that was able to germinate on the treated cheese surfaces are an indication of the anti-fungal activity of the natamycin analyzed. The cheeses (10 per natamycin particle type) were considered to be no longer protected by natamycin, when at least 50% of the cheeses analyzed had more than two growing colonies.
Cheeses were coated with a coating containing base polymer Craymul 4386 (Cray Valley, Brummen) and containing natamycin particles. Cheeses were then contaminated at day zero with Penicillium discolor PED1, CR1A and Penicillium discolor PED74, L1 at a concentration of 1.1×10^3/cm^2. The cheeses were visually checked for fungal growth on a daily basis for three weeks. The experiment was carried out with three different natamycin particles: disc-shaped natamycin particles having a mean particle diameter of 15 μm; grinded disc-shaped natamycin particles for which grinding was stopped when the mean particle diameter was 1.23 μm; and micronised natamycin particles having a mean particle diameter of 0.18 μm. […] As a control, 10 cheeses comprising no natamycin in the coating were analyzed. […]

[2] = Dissolution test, suspension diluted 70 times with water at room temperature; format: physicochemical; details: stirred
Protocol: A micronised natamycin suspension prepared essentially as described in Example 7 (with size smaller than 0.2 μm) was diluted 70 times with water at room temperature. The suspension was stirred. Samples were taken out after 5 seconds and then every 10 seconds. The particles were removed from the suspension by filtration with a 0.02 μm syringe-filter (Whatman International Ltd, England). The natamycin concentration of the remaining solution was measured with a spectrophotometer (Uvikon 933, Kontron Instruments). […] The solution reached saturation within 5 seconds (approximately 43 ppm natamycin in solution and solid particles remaining). The same test was repeated with non-grinded disc-shaped natamycin particles with a mean particle size of around 15 μm. In this case the saturation concentration was reached after approximately 2 hours.

[3] = Particle size distribution and mean particle size (d4,3) by laser diffraction (LS230); format: physicochemical; details: for mean particle size (d4,3): non-ground product dispersed in water
Protocol: Measurements were carried out for the following organic compounds: natamycin (DSM Gist, Delft, the Netherlands), nystatin (DSM, Delft, the Netherlands), cocoa (Blooker Cocoa, Amsterdam, the Netherlands) and coffee (Douwe Egberts Coffee, Utrecht, the Netherlands). For natamycin two products each containing differently shaped natamycin particles were included in the example; a natamycin product comprising disc-shaped particles and a natamycin product comprising needle-shaped particles. Before use the coffee was filtered through a 150 μm sieve. Samples of the above organic compounds were dispersed in demineralised water until the light obscuration value, which was measured by Laser Diffraction technology using a Laser Diffraction Particle Size Analyzer LS230 from BeckmanCoulter, Fullerton, Calif., USA, was between 45% and 55%. […] Then, the particle size distribution was analysed with the device for 90 seconds. The device made use of a red laser and a tungsten lamp with wavelengths of 450, 600 and 900 nm to measure the particle size. The device required the refractive index of the liquid phase and the particles and the imaginary refractive index of the particles for determining the particle size distribution from the raw data. These values were manually entered into the measurement device (refractive index liquid: 1.33; refractive index natamycin: 1.6; nystatin: 1.6; cocoa: 2.0; coffee: 2.0; imaginary refractive index natamycin: 0.01; nystatin: 0.01; cocoa: 1.0; coffee: 1.0). From the particle size distribution the mean particle size was determined. The mean particle size provided by the measurement device was a volume based particle size, d4,3. The distribution per particle size range is given as a percentage of the total.
A buffer solution of pH 8 was made by mixing 13.75 ml citric acid solution of 0.1 mol/l with 486.25 ml sodium hydroxide solution of 0.2 mol/l. 25 g of disc-shaped natamycin (d4,3: 14.6 μm; DSM Gist, Delft, the Netherlands) was added to the buffer solution and the powder was dispersed by means of stirring. The grinding chamber (300 ml) of the ball mill (Dynomill KDL Special from Bachofen AG, Basel, Switzerland) was filled up to 75% (v/v) with 0.3 mm zirconium oxide beads stabilized with yttrium (Tosoh Corporation, Tokyo, Japan). The ball mill was operated at 2000 rotations per minute. The natamycin suspension was pumped through the ball mill at a flow rate of 6.1 g/s. The suspension that exited the ball mill was returned to the vessel containing the rest of the suspension. The suspension passed through the chamber of the ball mill multiple times during the grinding experiment. The residence time of the suspension in the grinding chamber and the vessel was 26.7 seconds and 59.4 seconds, respectively. Samples of the suspension exiting the mill were taken after 2, 5, 10, 20, 30, 45, 60, 75 and 90 minutes. The particle size in the suspension samples was measured for each sample by means of laser diffraction using the Laser Diffraction Particle Size Analyzer called LS230 from BeckmanCoulter (Fullerton, Calif., USA).
Disc-shaped natamycin powder was dispersed in water at a concentration of 3000 ppm. The mean particle size of the natamycin suspension was approximately 15 μm. The suspension was homogenized with a homogenizer (Panda 2K, ns100L, GEA NIRO SOAVI, Cell disrupter (R-type)) and a suspension comprising micronised natamycin particles was obtained. In Table 5 the mean particle size (d4,3) of the particles of the obtained suspension is shown as a function of homogenization pressure for a different number of homogenization cycles. […]
The experiment was essentially performed as for natamycin (see Example 2). […]

[4] = Sedimentation behaviour of suspensions (volume fraction below the sedimentation front); format: physicochemical
Protocol: In this experiment the stability of micronised and non-micronised natamycin suspensions was analyzed by observing the sedimentation behavior of the suspensions. A micronised natamycin suspension was prepared essentially as described in Example 2 with the proviso that the natamycin was suspended in demineralized water and the pH was not set. Next, a suspension with a final natamycin concentration of 1% (w/w) was prepared in an aqueous solution containing 0.01 M NaCl. The pH of samples of the suspension was set with 0.01 M NaOH and 0.01 M HCl. The samples of the suspension were stored and the pH was adjusted after 10 and 24 hours, if necessary. After 24 hours the pH of the samples of the suspension remained constant. Ten ml of each separate sample was placed in a plastic pipette (Ten ml sterile and disposable plastic pipette; inner diameter 7 mm; Bibby Sterilin Ltd. Stone, Staffordshire, United Kingdom) which was closed at both ends and stored vertically at 4° C. The sedimentation behavior of the samples was followed in time by measuring the volume above and below the sedimentation front within each pipette. In Table 7 the results are shown. The percentages indicate the volume fraction below the sedimentation front. […] This implies that the particles form sediment. The rate at which this occurs varies with pH. […]

| time to reach saturation concentration [2] | mean particle size (d4,3) ([3]; listed as Disc-shaped natamycin powder) | mean particle size (d4,3) ([3]; listed as disc-shaped natamycin product) [μm] | Particle size distribution ([3]; particle size 0-0.2 μm) [% w/w] | Particle size distribution ([3]; particle size 0.2-0.8 μm) [% w/w] | Particle size distribution ([3]; particle size 0.8-2.0 μm) [% w/w] | Particle size distribution ([3]; particle size 2.0-5.0 μm) [% w/w] | Particle size distribution ([3]; particle size 5.0-10.0 μm) [% w/w] | Particle size distribution ([3]; particle size 10.0-50.0 μm) [% w/w] | Particle size distribution ([3]; particle size 50.0-200.0 μm) [% w/w] | sedimentation behaviour ([4]; all pH values (pH 3 to 10), within 24 hours) | mean particle size (d4,3) ([3]; listed as needle-shaped natamycin product) [μm] | Structure (SMILES) | Protection of cheese against fungal growth ([1]; 150 ppm natamycin in the coating) [days] | Protection of cheese against fungal growth ([1]; 250 ppm natamycin in the coating) [days] | mean particle size (d4,3) [3] [μm] | volume percentage below the sedimentation front ([4]; pH 4 to 6, after one day) |
| --- | --- | --- | --- | --- | --- | --- | --- | --- | --- | --- | --- | --- | --- | --- | --- | --- |
| approximately 2 hours | approximately 15 μm | 14.6 | 0.0 | 0.0 | 0.8 | 18.4 | 32.6 | 47.8 | 0.4 | completely sediment |  | C[C@@H]1C/C=C/C=C/C=C/C=C/[C@H](O[C@@H]2O[C@H](C)[C@@H](O)[C@H](N)[C@@H]2O)C[C@@H]2O[C@](O)(C[C@@H](O)C[C@H]3O[C@@H]3/C=C/C(=O)O1)C[C@H](O)[C@H]2C(=O)O [Natamycin disc, natamycin] | 16 | 18 |  |  |
|  |  |  | 10.2 | 7.2 | 10.5 | 24.9 | 31.7 | 15.6 | 0.0 |  | 6.4 | C[C@@H]1C/C=C/C=C/C=C/C=C/[C@H](O[C@@H]2O[C@H](C)[C@@H](O)[C@H](N)[C@@H]2O)C[C@@H]2O[C@](O)(C[C@@H](O)C[C@H]3O[C@@H]3/C=C/C(=O)O1)C[C@H](O)[C@H]2C(=O)O [Natamycin needle, natamycin] |  |  |  |  |

| Structure (SMILES) | time to reach saturation concentration [2] | mean particle size (d4,3) ([3]; listed as Disc-shaped natamycin powder) | mean particle size (d4,3) ([3]; listed as disc-shaped natamycin product) [μm] | Particle size distribution ([3]; particle size 0-0.2 μm) [% w/w] | Particle size distribution ([3]; particle size 0.2-0.8 μm) [% w/w] | Particle size distribution ([3]; particle size 0.8-2.0 μm) [% w/w] | Particle size distribution ([3]; particle size 2.0-5.0 μm) [% w/w] | Particle size distribution ([3]; particle size 5.0-10.0 μm) [% w/w] | Particle size distribution ([3]; particle size 10.0-50.0 μm) [% w/w] | Particle size distribution ([3]; particle size 50.0-200.0 μm) [% w/w] | sedimentation behaviour ([4]; all pH values (pH 3 to 10), within 24 hours) | mean particle size (d4,3) ([3]; listed as needle-shaped natamycin product) [μm] | Protection of cheese against fungal growth ([1]; 150 ppm natamycin in the coating) [days] | Protection of cheese against fungal growth ([1]; 250 ppm natamycin in the coating) [days] | mean particle size (d4,3) [3] [μm] | volume percentage below the sedimentation front ([4]; pH 4 to 6, after one day) |
| --- | --- | --- | --- | --- | --- | --- | --- | --- | --- | --- | --- | --- | --- | --- | --- | --- |
| C[C@@H]1[C@H](O)[C@@H](C)/C=C/C=C/CC/C=C/C=C/C=C/C=C/C(O[C@H]2O[C@H](C)[C@@H](O)[C@H](N)[C@@H]2O)CC2O[C@](O)(CC(O)C(O)CCC(O)CC(O)CC(O)CC(=O)O[C@H]1C)CC(O)C2C(=O)O (stereo partly drawn) [Nystatin, nystatin] |  |  |  | 7.4 | 4.4 | 27.2 | 46.7 | 12.2 | 2.1 | 0.0 |  |  |  |  | 3.4 | around 25% |
